Values of other authors as cited in article PMC6323428, “Elucidation of the Intestinal Absorption Mechanism of Loganin in the Human Intestinal Caco-2 Cell Model” (Evidence-based Complementary and Alternative Medicine : eCAM, 2018).

Tested on: human intestinal Caco-2 cells
Design: method as in PMID 27531366
Details: Caco-2 cells model, chiefly passive diffusion; cited from earlier work

In the case of COC(=O)C1=CO[C@@H](O[C@@H]2O[C@H](CO)[C@@H](O)[C@H](O)[C@H]2O)[C@@H]2C(CO)=CC[C@H]12 [geniposide], the “Intestinal permeability (in words)” value is listed as “good”.
